{
  "source": "paper PMC7736581",
  "about": "“Activation of the IRE1 RNase through remodeling of the kinase front pocket by ATP-competitive ligands” (Nature Communications, 2020)",
  "experiment_in_all_cases": "biochemical",
  "set-up_in_all_cases": "Invitrogen kinase panel: Z'Lyte activity (ATP at Km) or LanthaScreen competitive ATP-site binding, percent inhibition",
  "key": {"BTK": {"biological_target": "BTK (Homo sapiens, UniProt Q06187)", "sequence (Q06187 whole entry)": "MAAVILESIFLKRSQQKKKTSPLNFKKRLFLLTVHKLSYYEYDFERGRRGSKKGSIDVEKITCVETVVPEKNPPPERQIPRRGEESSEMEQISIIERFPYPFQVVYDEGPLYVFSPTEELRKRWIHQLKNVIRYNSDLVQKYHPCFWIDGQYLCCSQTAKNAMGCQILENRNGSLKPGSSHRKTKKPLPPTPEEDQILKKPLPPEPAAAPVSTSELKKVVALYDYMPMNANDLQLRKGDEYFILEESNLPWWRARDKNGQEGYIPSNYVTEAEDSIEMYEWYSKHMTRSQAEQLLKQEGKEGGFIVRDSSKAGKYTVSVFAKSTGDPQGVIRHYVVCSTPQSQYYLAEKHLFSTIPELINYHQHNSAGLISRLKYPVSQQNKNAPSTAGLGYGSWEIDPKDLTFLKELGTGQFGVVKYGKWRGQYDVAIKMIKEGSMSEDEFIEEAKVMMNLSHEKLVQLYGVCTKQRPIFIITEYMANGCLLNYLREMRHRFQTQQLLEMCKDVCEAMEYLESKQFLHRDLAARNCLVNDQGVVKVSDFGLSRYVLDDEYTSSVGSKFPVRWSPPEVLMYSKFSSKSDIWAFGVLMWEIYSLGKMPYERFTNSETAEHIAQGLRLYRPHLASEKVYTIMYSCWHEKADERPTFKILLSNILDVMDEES"}, "B-Raf": {"biological_target": "T1, B-Raf (Homo sapiens, UniProt P15056)", "T1 construct": "gene BRAF"}, "RSK2": {"biological_target": "T2, RSK2 (Homo sapiens, UniProt P51812)", "T2 construct": "gene RPS6KA3", "T2 sequence (P51812 whole entry)": "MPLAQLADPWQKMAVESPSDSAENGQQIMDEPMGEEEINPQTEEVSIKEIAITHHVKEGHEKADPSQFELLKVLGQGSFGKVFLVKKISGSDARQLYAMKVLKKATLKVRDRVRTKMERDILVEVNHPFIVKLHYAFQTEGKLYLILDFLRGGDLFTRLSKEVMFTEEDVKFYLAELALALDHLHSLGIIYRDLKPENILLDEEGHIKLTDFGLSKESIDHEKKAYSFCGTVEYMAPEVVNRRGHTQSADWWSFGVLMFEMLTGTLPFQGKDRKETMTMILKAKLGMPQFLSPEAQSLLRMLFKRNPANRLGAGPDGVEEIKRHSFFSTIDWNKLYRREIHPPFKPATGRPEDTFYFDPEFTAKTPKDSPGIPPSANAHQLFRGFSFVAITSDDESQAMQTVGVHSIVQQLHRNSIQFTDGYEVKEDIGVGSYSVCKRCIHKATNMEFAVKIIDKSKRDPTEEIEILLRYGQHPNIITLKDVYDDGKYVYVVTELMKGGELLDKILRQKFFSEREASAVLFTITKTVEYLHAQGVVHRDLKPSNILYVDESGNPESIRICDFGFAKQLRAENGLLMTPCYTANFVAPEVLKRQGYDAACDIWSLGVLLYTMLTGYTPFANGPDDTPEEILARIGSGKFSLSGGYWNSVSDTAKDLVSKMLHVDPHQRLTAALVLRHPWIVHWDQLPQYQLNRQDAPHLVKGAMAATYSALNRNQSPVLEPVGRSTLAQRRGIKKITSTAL"}, "IKK_epsilon": {"biological_target": "T3, IKK_epsilon (Homo sapiens, UniProt Q14164)", "T3 construct": "gene IKBKE", "T3 sequence (Q14164 1-716)": "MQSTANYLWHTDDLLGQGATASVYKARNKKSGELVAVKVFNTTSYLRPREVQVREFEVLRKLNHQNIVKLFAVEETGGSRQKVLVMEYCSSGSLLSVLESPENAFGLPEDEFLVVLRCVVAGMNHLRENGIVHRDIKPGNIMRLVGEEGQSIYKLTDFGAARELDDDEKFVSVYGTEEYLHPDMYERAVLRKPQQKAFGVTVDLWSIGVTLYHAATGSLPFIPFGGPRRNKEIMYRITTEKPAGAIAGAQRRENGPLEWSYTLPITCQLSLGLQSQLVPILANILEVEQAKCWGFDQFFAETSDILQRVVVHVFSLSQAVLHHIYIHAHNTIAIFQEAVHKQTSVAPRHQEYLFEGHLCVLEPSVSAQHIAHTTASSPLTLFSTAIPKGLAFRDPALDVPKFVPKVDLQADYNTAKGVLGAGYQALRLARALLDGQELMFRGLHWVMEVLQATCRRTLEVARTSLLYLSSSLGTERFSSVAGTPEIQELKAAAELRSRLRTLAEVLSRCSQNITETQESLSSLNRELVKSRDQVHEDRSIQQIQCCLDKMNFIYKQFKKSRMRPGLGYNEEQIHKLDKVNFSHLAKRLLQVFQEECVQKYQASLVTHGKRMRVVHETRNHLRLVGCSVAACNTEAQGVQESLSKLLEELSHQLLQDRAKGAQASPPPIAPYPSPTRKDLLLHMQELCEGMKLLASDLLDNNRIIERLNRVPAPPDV"}, "Aurora_B": {"biological_target": "T4, Aurora_B (Homo sapiens, UniProt Q96GD4)", "T4 construct": "gene AURKB", "T4 sequence (Q96GD4 whole entry)": "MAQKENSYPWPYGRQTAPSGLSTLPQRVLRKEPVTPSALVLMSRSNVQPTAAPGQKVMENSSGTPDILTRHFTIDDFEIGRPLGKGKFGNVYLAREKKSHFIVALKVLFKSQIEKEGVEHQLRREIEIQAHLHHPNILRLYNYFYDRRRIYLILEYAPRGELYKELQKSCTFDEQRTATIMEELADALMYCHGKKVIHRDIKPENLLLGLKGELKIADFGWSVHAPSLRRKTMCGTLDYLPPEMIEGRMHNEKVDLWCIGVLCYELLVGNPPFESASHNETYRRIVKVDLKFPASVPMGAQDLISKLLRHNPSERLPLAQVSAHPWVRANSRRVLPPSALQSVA"}, "Syk": {"biological_target": "Syk (Homo sapiens, UniProt P43405)"}, "TrkA": {"biological_target": "T5, TrkA (Homo sapiens, UniProt P04629)", "T5 construct": "gene NTRK1", "T5 sequence (P04629 whole entry)": "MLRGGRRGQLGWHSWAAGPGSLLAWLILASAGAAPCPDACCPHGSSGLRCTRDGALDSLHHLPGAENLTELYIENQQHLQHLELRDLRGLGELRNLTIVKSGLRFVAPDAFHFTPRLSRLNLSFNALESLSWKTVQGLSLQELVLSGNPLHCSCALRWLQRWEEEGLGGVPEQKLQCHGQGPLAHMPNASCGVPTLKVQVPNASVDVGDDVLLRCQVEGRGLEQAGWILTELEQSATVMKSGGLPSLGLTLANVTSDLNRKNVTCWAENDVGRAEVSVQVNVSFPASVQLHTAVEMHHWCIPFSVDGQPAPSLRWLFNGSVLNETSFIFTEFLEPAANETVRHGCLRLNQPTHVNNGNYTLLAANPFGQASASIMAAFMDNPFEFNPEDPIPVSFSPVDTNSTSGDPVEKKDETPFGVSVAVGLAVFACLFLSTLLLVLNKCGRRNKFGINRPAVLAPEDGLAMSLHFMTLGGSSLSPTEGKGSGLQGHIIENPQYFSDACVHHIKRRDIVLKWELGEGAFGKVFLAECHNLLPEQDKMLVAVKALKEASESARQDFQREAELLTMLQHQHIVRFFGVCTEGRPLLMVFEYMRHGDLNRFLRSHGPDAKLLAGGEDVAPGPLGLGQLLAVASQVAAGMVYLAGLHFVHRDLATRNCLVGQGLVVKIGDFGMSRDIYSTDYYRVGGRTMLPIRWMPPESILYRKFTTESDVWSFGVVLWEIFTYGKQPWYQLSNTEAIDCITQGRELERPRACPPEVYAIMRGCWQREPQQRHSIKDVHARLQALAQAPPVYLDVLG"}, "JNK2": {"biological_target": "T6, JNK2 (Homo sapiens, UniProt P45984)", "T6 construct": "gene MAPK9", "T6 sequence (P45984 whole entry)": "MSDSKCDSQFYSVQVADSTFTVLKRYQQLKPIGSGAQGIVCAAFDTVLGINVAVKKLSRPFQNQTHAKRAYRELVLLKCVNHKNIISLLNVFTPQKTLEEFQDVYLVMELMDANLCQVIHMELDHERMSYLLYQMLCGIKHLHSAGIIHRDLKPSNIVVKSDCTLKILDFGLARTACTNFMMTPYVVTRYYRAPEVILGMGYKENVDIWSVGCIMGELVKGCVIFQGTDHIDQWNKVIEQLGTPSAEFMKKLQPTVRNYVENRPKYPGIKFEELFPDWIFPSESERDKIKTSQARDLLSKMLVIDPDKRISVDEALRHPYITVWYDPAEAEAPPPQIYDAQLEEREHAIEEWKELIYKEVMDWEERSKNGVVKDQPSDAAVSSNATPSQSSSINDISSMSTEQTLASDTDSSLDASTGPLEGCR"}, "p70S6K": {"biological_target": "T7, p70S6K (Homo sapiens, UniProt P23443)", "T7 construct": "gene RPS6KB1", "T7 sequence (P23443 whole entry)": "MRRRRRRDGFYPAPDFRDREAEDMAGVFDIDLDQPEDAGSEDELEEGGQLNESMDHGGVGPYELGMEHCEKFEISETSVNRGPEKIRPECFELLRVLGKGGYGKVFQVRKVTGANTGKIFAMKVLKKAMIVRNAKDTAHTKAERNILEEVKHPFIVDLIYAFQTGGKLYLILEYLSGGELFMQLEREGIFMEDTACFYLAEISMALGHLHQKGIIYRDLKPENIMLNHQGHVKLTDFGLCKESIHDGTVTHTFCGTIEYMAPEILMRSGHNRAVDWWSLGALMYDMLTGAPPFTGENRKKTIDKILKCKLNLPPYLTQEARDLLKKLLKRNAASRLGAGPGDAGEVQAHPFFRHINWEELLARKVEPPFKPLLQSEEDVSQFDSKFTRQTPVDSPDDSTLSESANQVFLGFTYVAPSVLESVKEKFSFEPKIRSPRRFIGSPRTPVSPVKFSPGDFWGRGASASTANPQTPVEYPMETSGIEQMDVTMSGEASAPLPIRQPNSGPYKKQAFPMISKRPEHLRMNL"}, "Met": {"biological_target": "Met (Homo sapiens, UniProt P08581)", "sequence (P08581 whole entry)": "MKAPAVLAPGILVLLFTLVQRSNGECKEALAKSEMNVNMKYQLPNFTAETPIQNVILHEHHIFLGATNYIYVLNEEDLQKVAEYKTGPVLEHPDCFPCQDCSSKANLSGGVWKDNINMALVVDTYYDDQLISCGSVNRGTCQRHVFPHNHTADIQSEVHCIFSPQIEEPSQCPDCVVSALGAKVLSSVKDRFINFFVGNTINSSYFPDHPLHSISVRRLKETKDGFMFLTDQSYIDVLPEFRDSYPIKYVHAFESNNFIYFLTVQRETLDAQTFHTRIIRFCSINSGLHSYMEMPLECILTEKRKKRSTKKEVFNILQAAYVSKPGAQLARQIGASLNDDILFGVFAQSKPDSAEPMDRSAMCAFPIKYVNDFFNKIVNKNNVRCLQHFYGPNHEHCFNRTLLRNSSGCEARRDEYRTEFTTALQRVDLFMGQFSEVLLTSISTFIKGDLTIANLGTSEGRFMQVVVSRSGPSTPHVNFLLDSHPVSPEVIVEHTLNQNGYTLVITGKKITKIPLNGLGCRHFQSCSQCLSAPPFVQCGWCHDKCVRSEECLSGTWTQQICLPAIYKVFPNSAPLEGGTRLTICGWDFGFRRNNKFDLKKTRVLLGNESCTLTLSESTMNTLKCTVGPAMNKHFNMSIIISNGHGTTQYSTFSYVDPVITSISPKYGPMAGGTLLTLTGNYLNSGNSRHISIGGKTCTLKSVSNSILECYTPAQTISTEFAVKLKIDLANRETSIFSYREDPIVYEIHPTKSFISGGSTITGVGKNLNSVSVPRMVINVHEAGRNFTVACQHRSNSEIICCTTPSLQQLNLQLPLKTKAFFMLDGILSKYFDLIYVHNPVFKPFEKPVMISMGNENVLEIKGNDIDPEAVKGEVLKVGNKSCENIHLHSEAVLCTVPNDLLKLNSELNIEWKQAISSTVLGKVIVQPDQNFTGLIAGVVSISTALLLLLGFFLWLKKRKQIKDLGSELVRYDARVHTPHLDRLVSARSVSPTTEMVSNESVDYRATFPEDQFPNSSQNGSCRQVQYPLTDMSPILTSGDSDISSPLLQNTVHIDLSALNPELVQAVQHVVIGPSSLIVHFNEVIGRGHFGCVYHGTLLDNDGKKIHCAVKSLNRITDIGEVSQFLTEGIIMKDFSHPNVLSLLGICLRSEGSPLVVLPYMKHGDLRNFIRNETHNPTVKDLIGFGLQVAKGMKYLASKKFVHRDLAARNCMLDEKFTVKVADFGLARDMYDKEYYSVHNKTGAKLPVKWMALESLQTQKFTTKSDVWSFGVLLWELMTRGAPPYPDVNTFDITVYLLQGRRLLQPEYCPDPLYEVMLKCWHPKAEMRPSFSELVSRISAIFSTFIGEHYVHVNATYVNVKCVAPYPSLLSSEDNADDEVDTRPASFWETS"}, "PKD1": {"biological_target": "T8, PKD1 (Homo sapiens, UniProt Q15139)", "T8 construct": "gene PRKD1", "T8 sequence (Q15139 1-912)": "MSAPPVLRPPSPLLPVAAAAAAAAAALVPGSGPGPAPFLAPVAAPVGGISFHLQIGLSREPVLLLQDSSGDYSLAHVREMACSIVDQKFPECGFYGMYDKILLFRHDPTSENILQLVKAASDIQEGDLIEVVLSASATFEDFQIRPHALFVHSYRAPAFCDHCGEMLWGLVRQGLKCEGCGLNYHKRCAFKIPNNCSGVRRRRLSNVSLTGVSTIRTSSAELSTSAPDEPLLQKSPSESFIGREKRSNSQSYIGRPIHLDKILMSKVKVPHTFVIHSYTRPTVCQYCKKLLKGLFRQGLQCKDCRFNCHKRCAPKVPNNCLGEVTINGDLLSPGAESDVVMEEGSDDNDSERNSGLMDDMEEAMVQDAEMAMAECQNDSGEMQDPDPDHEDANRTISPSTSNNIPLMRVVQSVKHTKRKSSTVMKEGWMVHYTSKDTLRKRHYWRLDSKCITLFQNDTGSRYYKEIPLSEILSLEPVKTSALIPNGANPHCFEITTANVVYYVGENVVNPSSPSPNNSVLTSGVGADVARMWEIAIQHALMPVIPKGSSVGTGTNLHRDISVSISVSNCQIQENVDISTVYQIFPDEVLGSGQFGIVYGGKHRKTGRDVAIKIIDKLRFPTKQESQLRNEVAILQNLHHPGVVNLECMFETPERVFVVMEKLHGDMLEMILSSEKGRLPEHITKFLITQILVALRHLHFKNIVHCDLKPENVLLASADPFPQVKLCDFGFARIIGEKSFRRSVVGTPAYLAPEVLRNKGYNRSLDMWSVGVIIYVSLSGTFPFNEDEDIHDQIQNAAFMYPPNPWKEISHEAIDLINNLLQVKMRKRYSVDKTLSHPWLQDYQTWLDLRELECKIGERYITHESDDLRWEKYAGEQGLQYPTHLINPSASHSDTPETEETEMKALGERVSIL"}, "MLK1": {"biological_target": "T9, MLK1 (Homo sapiens, UniProt P80192)", "T9 construct": "gene MAP3K9"}},
  "data": [
    {"smiles": "CCOC(=O)Nc1cccc2c(Oc3ncccc3-c3ccnc(N[C@H]4CCCNC4)n3)c(C)ccc12", "note": "[G-1749]", "values": [
      {"measurement": "inhibition at 1 µM", "setting": "BTK", "value": 1.5, "unit": "%"},
      {"measurement": "inhibition at 1 µM", "setting": "B-Raf", "value": 9.5, "unit": "%"},
      {"measurement": "inhibition at 1 µM", "setting": "RSK2", "value": 3.5, "unit": "%"},
      {"measurement": "inhibition at 1 µM", "setting": "IKK_epsilon", "value": 4, "unit": "%"},
      {"measurement": "inhibition at 1 µM", "setting": "Aurora_B", "value": 2.5, "unit": "%"},
      {"measurement": "inhibition at 1 µM", "setting": "Syk", "value": -2.5, "unit": "%"},
      {"measurement": "inhibition at 1 µM", "setting": "TrkA", "value": -4, "unit": "%"},
      {"measurement": "inhibition at 1 µM", "setting": "JNK2", "value": 79, "unit": "%"},
      {"measurement": "inhibition at 1 µM", "setting": "p70S6K", "value": 2.5, "unit": "%"},
      {"measurement": "inhibition at 1 µM", "setting": "Met", "value": 4, "unit": "%"},
      {"measurement": "inhibition at 1 µM", "setting": "PKD1", "value": 33.5, "unit": "%"},
      {"measurement": "inhibition at 1 µM", "setting": "MLK1", "value": -8.5, "unit": "%"}
    ]},
    {"smiles": "CC#CC(=O)Nc1cccc2c(Oc3ncccc3-c3ccnc(N[C@H]4CCCNC4)n3)c(C)ccc12", "note": "[G-7658]", "values": [
      {"measurement": "inhibition at 1 µM", "setting": "BTK", "value": 5.5, "unit": "%"},
      {"measurement": "inhibition at 1 µM", "setting": "B-Raf", "value": 5.5, "unit": "%"},
      {"measurement": "inhibition at 1 µM", "setting": "RSK2", "value": 0, "unit": "%"},
      {"measurement": "inhibition at 1 µM", "setting": "IKK_epsilon", "value": 6.5, "unit": "%"},
      {"measurement": "inhibition at 1 µM", "setting": "Aurora_B", "value": 2, "unit": "%"},
      {"measurement": "inhibition at 1 µM", "setting": "Syk", "value": -4.5, "unit": "%"},
      {"measurement": "inhibition at 1 µM", "setting": "TrkA", "value": 10.5, "unit": "%"},
      {"measurement": "inhibition at 1 µM", "setting": "JNK2", "value": 72, "unit": "%"},
      {"measurement": "inhibition at 1 µM", "setting": "p70S6K", "value": -1, "unit": "%"},
      {"measurement": "inhibition at 1 µM", "setting": "Met", "value": 5, "unit": "%"},
      {"measurement": "inhibition at 1 µM", "setting": "PKD1", "value": 31, "unit": "%"},
      {"measurement": "inhibition at 1 µM", "setting": "MLK1", "value": -2.5, "unit": "%"}
    ]},
    {"smiles": "O=c1cc(-c2n[nH]c3ncc(-c4c(F)cccc4F)cc23)nc(N2CCC(O)CC2)[nH]1", "note": "[G-9807]", "values": [
      {"measurement": "inhibition at 1 µM", "setting": "BTK", "value": 35.9, "unit": "%"},
      {"measurement": "inhibition at 1 µM", "setting": "B-Raf", "value": 81.2, "unit": "%"},
      {"measurement": "inhibition at 1 µM", "setting": "RSK2", "value": 98, "unit": "%"},
      {"measurement": "inhibition at 1 µM", "setting": "IKK_epsilon", "value": 86.5, "unit": "%"},
      {"measurement": "inhibition at 1 µM", "setting": "Aurora_B", "value": 82.2, "unit": "%"},
      {"measurement": "inhibition at 1 µM", "setting": "Syk", "value": 52, "unit": "%"},
      {"measurement": "inhibition at 1 µM", "setting": "TrkA", "value": 91.2, "unit": "%"},
      {"measurement": "inhibition at 1 µM", "setting": "JNK2", "value": 91.3, "unit": "%"},
      {"measurement": "inhibition at 1 µM", "setting": "p70S6K", "value": 88.7, "unit": "%"},
      {"measurement": "inhibition at 1 µM", "setting": "Met", "value": 88.8, "unit": "%"},
      {"measurement": "inhibition at 1 µM", "setting": "PKD1", "value": 97.5, "unit": "%"},
      {"measurement": "inhibition at 1 µM", "setting": "MLK1", "value": 98.1, "unit": "%"}
    ]}
  ]
}
